Measurements reported in ChEMBL document CHEMBL4265943, “Design and synthesis of potent dual inhibitors of JAK2 and HDAC based on fusing the pharmacophores of XL019 and vorinostat” (Eur J Med Chem, 2018).

System: MCF7
Assay: Antiproliferative activity against human MCF7 cells after 72 hrs by MTT assay
Format: functional, cell-based
Conditions: MCF7, 72 h

- IC50: 700 nM
Structure (SMILES): O=C(CCCCCCC(=O)Nc1ccc(-c2ccnc(Nc3ccc(N4CCOCC4)cc3)n2)cc1)NO
